The results in this text go back to ChEMBL document CHEMBL5291721, “A preclinical secondary pharmacology resource illuminates target-adverse drug reaction associations of marketed drugs” (Nat Commun, 2023).

In experiment [1] the target is Bile salt export pump (Homo sapiens, UniProt O95342). In kind it is functional.
Experiment [2] has as its target T1, Alpha-2A adrenergic receptor (Homo sapiens, UniProt P08913).
T1 sequence (P08913 whole entry): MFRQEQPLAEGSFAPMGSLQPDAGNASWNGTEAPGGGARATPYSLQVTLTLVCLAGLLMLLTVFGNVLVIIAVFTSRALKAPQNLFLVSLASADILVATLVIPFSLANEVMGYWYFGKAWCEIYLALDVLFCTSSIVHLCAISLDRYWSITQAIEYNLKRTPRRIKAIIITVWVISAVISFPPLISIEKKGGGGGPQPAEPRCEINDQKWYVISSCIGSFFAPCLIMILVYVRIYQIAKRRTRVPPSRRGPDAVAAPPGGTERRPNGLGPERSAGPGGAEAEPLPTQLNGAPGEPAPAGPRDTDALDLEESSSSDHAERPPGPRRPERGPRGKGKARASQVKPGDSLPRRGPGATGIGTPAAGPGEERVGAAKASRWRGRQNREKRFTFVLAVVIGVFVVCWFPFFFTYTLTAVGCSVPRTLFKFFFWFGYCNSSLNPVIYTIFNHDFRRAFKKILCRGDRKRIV
In kind it is functional, cell-based.

Experiment [3] deals with T2, Cholecystokinin receptor type A (Homo sapiens, UniProt P32238).
T2 sequence (P32238 whole entry): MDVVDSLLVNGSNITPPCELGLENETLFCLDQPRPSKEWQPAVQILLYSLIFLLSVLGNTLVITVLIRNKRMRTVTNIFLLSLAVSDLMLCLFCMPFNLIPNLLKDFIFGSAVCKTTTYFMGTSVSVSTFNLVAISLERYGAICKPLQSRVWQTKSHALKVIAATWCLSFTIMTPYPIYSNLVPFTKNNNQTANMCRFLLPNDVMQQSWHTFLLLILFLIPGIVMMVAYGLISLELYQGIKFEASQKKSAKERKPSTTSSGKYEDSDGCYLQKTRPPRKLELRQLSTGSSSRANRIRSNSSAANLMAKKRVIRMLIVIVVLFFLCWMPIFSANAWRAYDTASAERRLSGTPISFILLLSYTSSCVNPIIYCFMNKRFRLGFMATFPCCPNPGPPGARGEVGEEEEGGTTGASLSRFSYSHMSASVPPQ

Experiment [4] concerns the target T3, Muscarinic acetylcholine receptor M2 (Homo sapiens, UniProt P08172).
T3 sequence (P08172 whole entry): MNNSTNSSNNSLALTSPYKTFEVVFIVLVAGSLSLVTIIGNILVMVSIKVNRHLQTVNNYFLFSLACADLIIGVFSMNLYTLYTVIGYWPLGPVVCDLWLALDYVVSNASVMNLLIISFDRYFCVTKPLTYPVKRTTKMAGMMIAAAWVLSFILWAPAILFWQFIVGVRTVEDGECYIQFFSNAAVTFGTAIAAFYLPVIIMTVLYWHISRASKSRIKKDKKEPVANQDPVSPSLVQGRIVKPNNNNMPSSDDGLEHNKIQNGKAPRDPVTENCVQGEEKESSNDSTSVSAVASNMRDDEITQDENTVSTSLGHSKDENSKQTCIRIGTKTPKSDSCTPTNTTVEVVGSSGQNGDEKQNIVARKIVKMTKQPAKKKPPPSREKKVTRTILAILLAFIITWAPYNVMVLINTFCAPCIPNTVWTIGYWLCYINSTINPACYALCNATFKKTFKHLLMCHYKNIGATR
In kind it is functional, cell-based.

Experiment [5] concerns the target D(1A) dopamine receptor (Homo sapiens, UniProt P21728). In kind it is functional, cell-based.
The target of experiment [6] is Growth hormone secretagogue receptor type 1 (Homo sapiens, UniProt Q92847).
Experiment [7] has as its target T4, 5-hydroxytryptamine receptor 1A (Homo sapiens, UniProt P08908).
T4 sequence (P08908 whole entry): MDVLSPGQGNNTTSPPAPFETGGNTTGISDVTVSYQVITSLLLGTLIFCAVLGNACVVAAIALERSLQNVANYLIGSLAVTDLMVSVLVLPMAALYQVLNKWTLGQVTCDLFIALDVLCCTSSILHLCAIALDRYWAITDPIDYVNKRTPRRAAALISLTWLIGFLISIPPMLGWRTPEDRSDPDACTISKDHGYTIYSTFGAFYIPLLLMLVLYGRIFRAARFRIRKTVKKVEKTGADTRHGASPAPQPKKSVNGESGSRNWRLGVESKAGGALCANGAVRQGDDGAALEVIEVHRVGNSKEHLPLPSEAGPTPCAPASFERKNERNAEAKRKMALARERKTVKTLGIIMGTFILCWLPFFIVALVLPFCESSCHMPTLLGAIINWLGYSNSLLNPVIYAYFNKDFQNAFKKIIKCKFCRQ
In kind it is functional, cell-based.

The target in experiment [8] is Motilin receptor (Homo sapiens, UniProt O43193).
For experiment [9], the target named is Delta-type opioid receptor (Homo sapiens, UniProt P41143).
Experiment [10] addresses T5, Equilibrative nucleoside transporter 1 (Homo sapiens, UniProt Q99808).
T5 sequence (Q99808 whole entry): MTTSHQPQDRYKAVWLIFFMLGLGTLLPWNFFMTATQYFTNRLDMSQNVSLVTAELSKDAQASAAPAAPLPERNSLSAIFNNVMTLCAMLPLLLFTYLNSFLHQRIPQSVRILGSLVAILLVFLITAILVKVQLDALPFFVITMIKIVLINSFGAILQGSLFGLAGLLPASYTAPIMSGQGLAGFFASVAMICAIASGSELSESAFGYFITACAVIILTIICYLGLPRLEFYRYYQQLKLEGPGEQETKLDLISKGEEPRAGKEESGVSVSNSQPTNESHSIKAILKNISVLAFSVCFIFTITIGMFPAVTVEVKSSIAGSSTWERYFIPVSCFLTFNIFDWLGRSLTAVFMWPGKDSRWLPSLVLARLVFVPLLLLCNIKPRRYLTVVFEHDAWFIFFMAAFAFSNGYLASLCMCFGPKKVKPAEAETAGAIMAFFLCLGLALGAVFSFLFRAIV

The target in experiment [11] is Sodium-dependent dopamine transporter (Homo sapiens, UniProt Q01959).
Experiment [12] concerns the target cGMP-inhibited 3',5'-cyclic phosphodiesterase 3A (Homo sapiens, UniProt Q14432). In kind it is functional.
Also: assay procedure not described here.

Delta-type opioid receptor, sequence (P41143 whole entry): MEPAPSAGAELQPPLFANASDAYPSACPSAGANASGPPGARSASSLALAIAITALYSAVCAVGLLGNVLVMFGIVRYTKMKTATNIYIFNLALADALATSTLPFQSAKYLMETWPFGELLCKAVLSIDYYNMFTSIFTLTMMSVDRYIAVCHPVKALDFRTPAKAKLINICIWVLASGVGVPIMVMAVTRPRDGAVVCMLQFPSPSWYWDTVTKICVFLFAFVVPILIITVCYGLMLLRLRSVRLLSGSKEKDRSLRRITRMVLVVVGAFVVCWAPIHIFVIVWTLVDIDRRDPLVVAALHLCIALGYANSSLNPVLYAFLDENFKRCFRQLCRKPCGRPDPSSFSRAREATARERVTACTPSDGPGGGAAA
Bile salt export pump, sequence (O95342 whole entry): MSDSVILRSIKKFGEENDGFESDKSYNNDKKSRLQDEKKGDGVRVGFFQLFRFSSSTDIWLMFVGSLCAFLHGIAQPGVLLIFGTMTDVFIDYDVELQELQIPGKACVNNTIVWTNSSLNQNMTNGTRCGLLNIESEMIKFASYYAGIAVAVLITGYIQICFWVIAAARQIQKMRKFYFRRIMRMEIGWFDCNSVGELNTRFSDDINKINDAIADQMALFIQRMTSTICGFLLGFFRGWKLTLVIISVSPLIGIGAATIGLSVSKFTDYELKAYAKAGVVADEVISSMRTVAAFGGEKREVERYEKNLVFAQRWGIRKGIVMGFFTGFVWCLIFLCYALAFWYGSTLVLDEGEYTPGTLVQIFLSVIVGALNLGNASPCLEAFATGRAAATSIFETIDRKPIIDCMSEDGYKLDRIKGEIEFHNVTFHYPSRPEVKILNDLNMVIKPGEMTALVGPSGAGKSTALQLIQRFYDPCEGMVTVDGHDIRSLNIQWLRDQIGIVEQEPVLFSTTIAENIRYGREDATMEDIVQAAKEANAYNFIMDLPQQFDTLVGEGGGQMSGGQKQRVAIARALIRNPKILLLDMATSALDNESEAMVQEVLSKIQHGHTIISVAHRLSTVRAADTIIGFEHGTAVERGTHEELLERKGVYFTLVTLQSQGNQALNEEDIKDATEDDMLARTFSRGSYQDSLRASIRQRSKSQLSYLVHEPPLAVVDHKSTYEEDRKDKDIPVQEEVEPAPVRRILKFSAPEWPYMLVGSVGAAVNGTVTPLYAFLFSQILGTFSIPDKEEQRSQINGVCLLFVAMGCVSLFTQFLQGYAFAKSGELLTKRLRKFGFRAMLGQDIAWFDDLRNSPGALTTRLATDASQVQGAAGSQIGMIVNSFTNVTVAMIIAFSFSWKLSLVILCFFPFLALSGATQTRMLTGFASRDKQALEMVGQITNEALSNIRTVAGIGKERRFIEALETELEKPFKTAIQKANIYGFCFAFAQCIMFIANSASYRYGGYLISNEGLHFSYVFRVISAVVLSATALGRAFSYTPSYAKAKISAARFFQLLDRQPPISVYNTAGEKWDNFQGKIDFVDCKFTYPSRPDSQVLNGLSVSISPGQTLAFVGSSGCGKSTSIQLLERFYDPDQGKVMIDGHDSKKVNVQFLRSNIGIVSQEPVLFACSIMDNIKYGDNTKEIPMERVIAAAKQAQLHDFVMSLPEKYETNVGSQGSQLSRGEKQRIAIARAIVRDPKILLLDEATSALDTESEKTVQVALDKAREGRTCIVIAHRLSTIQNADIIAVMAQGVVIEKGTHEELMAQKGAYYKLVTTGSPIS
D(1A) dopamine receptor, sequence (P21728 whole entry): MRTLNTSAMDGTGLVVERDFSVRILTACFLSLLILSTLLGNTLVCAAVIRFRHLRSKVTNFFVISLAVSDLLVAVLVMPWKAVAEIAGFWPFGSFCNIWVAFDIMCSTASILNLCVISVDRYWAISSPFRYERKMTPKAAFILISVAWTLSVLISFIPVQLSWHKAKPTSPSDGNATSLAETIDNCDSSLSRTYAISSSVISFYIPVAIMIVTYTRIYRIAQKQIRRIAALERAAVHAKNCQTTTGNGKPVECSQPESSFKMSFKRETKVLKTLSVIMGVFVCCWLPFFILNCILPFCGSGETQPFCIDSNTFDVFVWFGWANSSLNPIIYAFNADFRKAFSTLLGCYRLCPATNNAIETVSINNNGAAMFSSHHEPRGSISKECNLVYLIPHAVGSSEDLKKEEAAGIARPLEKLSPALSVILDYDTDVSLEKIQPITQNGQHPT
Sodium-dependent dopamine transporter, sequence (Q01959 whole entry): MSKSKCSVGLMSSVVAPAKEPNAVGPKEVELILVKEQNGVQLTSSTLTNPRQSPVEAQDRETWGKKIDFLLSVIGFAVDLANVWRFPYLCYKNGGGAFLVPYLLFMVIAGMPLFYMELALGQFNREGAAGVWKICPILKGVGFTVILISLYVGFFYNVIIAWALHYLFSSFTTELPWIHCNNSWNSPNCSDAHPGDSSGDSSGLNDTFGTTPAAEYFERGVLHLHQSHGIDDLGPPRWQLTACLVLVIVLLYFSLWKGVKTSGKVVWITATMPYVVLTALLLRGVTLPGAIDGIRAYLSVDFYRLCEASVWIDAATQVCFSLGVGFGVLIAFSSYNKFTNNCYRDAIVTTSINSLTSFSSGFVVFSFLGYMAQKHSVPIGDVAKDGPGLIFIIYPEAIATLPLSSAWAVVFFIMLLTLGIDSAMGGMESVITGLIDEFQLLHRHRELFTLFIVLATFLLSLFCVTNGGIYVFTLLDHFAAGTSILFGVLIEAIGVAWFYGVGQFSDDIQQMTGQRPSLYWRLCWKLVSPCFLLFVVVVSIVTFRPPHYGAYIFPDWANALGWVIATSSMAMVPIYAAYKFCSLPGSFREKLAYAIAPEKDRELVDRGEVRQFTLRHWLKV
Growth hormone secretagogue receptor type 1, sequence (Q92847 whole entry): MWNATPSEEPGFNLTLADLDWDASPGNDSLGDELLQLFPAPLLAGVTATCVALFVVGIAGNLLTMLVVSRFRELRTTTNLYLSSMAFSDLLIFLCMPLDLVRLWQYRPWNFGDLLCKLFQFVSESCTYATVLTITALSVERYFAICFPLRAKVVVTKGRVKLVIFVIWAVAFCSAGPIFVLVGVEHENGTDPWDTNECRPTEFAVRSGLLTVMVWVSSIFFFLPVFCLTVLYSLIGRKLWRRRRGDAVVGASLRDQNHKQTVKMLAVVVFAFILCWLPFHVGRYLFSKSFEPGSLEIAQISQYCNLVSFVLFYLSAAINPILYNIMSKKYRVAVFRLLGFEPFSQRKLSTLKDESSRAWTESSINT
Motilin receptor, sequence (O43193 whole entry): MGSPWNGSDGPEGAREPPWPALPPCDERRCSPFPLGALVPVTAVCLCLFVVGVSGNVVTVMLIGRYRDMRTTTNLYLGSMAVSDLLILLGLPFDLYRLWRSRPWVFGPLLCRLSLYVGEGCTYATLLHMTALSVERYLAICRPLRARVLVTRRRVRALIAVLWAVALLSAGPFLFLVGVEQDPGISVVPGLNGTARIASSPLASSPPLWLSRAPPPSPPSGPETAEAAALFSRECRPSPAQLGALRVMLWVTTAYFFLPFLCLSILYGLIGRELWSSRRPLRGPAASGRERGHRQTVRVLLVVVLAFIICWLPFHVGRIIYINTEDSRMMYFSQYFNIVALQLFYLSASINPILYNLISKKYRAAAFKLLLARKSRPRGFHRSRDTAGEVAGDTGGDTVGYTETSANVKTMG
cGMP-inhibited 3',5'-cyclic phosphodiesterase 3A, sequence (Q14432 whole entry): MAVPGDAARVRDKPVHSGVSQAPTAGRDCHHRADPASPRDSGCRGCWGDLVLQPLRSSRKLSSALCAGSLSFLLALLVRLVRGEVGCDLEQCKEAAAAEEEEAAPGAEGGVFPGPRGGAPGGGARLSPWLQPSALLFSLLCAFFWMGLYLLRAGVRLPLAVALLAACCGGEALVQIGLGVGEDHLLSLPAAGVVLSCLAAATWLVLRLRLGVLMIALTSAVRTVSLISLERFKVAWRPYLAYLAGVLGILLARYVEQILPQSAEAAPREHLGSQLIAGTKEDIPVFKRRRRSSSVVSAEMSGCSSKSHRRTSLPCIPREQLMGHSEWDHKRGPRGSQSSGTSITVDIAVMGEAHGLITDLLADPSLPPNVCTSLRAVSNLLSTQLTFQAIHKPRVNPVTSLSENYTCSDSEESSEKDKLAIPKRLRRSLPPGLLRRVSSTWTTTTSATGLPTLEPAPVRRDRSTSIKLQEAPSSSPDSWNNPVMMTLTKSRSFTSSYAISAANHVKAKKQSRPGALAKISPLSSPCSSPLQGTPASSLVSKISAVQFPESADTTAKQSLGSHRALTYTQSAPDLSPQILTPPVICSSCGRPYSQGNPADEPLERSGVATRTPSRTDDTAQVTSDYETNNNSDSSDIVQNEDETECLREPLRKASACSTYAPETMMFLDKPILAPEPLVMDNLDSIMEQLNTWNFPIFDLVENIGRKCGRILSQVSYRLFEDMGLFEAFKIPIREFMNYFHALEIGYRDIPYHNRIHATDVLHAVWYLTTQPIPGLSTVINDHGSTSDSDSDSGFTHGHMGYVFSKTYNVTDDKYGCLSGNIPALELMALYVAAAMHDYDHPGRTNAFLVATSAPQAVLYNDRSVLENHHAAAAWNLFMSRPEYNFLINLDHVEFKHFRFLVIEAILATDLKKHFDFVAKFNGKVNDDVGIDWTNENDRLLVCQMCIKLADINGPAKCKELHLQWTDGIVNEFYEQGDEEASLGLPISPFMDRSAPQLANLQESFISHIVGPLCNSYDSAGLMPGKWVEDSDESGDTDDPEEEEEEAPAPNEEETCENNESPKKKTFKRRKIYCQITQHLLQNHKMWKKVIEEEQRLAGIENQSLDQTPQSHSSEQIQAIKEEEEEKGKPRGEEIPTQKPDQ

One may read the AC50 as the concentration giving half of the maximal activity seen. Turning to `NC1=NC(=O)C(c2ccccc2)O1` (configuration not stated) [PEMOLINE], the AC50 is greater than 300 µM in experiment [1]; greater than 10 µM in [2]; greater than 30 µM in experiment [3]; greater than 10 µM in [4]; greater than 10 µM in experiment [5]; greater than 30 µM in experiment [6]. Further, the AC50 in experiment [7] is greater than 10 µM; in [8], greater than 10 µM; in experiment [9], greater than 30 µM; in [10], greater than 30 µM; in experiment [11] it was 3.46 µM; in experiment [12], greater than 30 µM.

For `CCc1ccc(CCOc2ccc(CC3SC(=O)NC3=O)cc2)nc1` (configuration not stated) [PIOGLITAZONE], the AC50 was 0.1 µM in experiment [1]; greater than 10 µM in experiment [2]; greater than 30 µM in experiment [3]; greater than 10 µM in experiment [4]; greater than 10 µM in experiment [5]; greater than 30 µM in experiment [6]. Further, the AC50 in experiment [7] was greater than 10 µM; in experiment [8], greater than 10 µM; in [9] it was greater than 10 µM; in experiment [10], greater than 30 µM; in experiment [11], greater than 30 µM; in experiment [12], greater than 30 µM.

Take `CC(C(=O)O)c1ccc(N2CC=CC2)c(Cl)c1` (configuration not stated) [PIRPROFEN]: the AC50 in experiment [1] was 270 µM; in experiment [2], greater than 10 µM; in experiment [3], greater than 30 µM; in experiment [4], greater than 10 µM; in [5] it was greater than 10 µM; in experiment [6] it was greater than 30 µM. Also, the AC50 is greater than 10 µM in experiment [7]; greater than 10 µM in experiment [8]; greater than 30 µM in experiment [9]; greater than 30 µM in [10]; greater than 10 µM in experiment [11]; greater than 30 µM in experiment [12].

With `CC[C@H](C)C(=O)O[C@H]1C[C@H](O)C=C2C=C[C@H](C)[C@H](CC[C@@H](O)C[C@@H](O)CC(=O)O)[C@H]21` [PRAVASTATIN], the AC50 was greater than 100 µM in experiment [1]; greater than 30 µM in [2]; greater than 30 µM in [3]; greater than 30 µM in experiment [4]; greater than 30 µM in experiment [5]; greater than 30 µM in experiment [6]. The AC50 in experiment [7], in experiment [8], in experiment [9], in experiment [10], in experiment [11] and in experiment [12] was greater than 30 µM each time.

Consider `NC(=O)c1cnccn1` [PYRAZINAMIDE], for which the AC50 in experiment [1] is greater than 300 µM; in experiment [2], greater than 30 µM; in [3], greater than 30 µM; in experiment [4], greater than 30 µM; in experiment [5], greater than 30 µM; in [6] it was greater than 30 µM. Besides, the AC50 in experiment [7], in [8], in [9], in [10], in [11] and in experiment [12] was greater than 30 µM throughout.

For `CC(C(=O)O)c1ccc(C(=O)c2cccs2)cc1` (configuration not stated) [SUPROFEN], the AC50 in [1] was greater than 300 µM; in [2], greater than 10 µM; in experiment [3], greater than 10 µM; in [4], greater than 10 µM; in experiment [5] it was greater than 10 µM; in experiment [6] it was greater than 10 µM. The AC50 was greater than 10 µM in experiment [7]; greater than 10 µM in [8]; greater than 30 µM in experiment [9]; greater than 10 µM in [10]; greater than 10 µM in [11]; greater than 30 µM in [12].

`CS(=O)(=O)c1ccc([C@@H](O)[C@@H](CO)NC(=O)C(Cl)Cl)cc1` [THIAMPHENICOL]: the AC50 is greater than 300 µM in experiment [1]; greater than 30 µM in experiment [2]; greater than 30 µM in [3]; greater than 30 µM in experiment [4]; greater than 30 µM in experiment [5]; greater than 30 µM in experiment [6]. Besides, the AC50 in experiment [7], in experiment [8], in [9], in experiment [10], in [11] and in [12] was greater than 30 µM in each case.

For `Cc1ccc(C(=O)c2cc(O)c(O)c([N+](=O)[O-])c2)cc1` [TOLCAPONE], the AC50 is 30.3 µM in [1]; greater than 10 µM in experiment [2]; greater than 10 µM in experiment [3]; greater than 10 µM in experiment [4]; greater than 10 µM in experiment [5]; greater than 10 µM in experiment [6]. Also, the AC50 in experiment [7] was greater than 10 µM; in [8], greater than 10 µM; in experiment [9], greater than 30 µM; in [10], greater than 30 µM; in experiment [11], 1.1 µM; in experiment [12] it was 18 µM.

`NC[C@H]1CC[C@H](C(=O)O)CC1` [TRANEXAMIC ACID]: the AC50 is greater than 300 µM in [1]; greater than 10 µM in [2]; greater than 10 µM in experiment [3]; greater than 10 µM in experiment [4]; greater than 30 µM in [5]; greater than 10 µM in experiment [6]. The half-maximal activity concentration (AC50) in experiment [7] was greater than 10 µM; in [8] it was greater than 10 µM; in experiment [9], greater than 30 µM; in experiment [10], greater than 10 µM; in [11], greater than 10 µM; in experiment [12], greater than 30 µM.

On to `CCCS(=O)(=O)Nc1ccc(F)c(C(=O)c2c[nH]c3ncc(-c4ccc(Cl)cc4)cc23)c1F` [VEMURAFENIB], for which the AC50 in [1] is 37 µM; in experiment [2] it was greater than 30 µM; in experiment [3] it was greater than 30 µM; in experiment [4], greater than 30 µM; in [5] it was greater than 30 µM; in experiment [6] it was greater than 30 µM. Besides, the AC50 in [7], in [8], in experiment [9], in experiment [10], in experiment [11] and in experiment [12] was greater than 30 µM throughout.

As to `OCc1cc([C@@H](O)CNCCCCCCOCCOCc2c(Cl)cccc2Cl)ccc1O` [VILANTEROL], the half-maximal activity concentration (AC50) in [1] was 44 µM; in experiment [2] it was greater than 30 µM; in [3], greater than 30 µM; in experiment [4], greater than 30 µM; in [5], 2.2 µM; in experiment [6] it was 13 µM. Further, the AC50 is greater than 30 µM in experiment [7]; 14 µM in experiment [8]; greater than 30 µM in experiment [9]; greater than 30 µM in experiment [10]; 6.7 µM in [11]; greater than 30 µM in experiment [12].
